{"source": "patent US20070082073A1", "about": "“Catechin Adjuvants” (UNIVERSITY OF SOUTH FLORIDA, priority 2005, published 2007)", "key": {"[1]": {"settings": "beagle dogs, cited from earlier work"}, "[2]": {"test_system": "doxorubicin resistance tumors", "settings": "animal model; cited from earlier work"}, "[3]": {"experiment": "estimated/extrapolated EGCg plasma concentration after oral daily dose", "assay_type": "in vivo, dogs", "method": "Previous reports indicate in vivo therapeutic activity at a plasma concentration of 1 to 10 μM/L (Lambert & Yang, 2003). Swezey et. al (Swezey et al., 2003) studied the absorption, tissue distribution and elimination of 4-[^3H]-epigallocatechin gallate in beagle dogs and estimated that approximately 20% of the oral dose appears in plasma after one hour and a half life of approximately 8 h. Considering an underestimation of this value to be 50 μg/ml and the molecular weight of EGCg of […] a daily dose of 250 mg/kg/day would result in a plasma concentration of approximately 100 μM/L. The doses proposed herein would result in an extrapolated value of more than […] in plasma."}, "[4]": {"test_system": "opportunistic microbial infections", "experiment": "opportunistic microbial infections in canines treated with antimetabolites for lymphoma", "assay_type": "in vivo", "excerpt": "There is a wide commercial need for inexpensive small molecular weight immunoenhancing drugs to enhance the immune response of individuals treated with antimetabolite anti-cancer drugs, which are immunosuppressive. We are using as the preclinical prototype pet canines treated for lymphoma, one of the most common cancers of dogs as well as humans."}}}
{"smiles": "[3H]C1c2c(O)cc(O)cc2OC(c2cc(O)c(O)c(O)c2)C1OC(=O)c1cc(O)c(O)c(O)c1", "note": "(stereo not shown) [4-[^3H]-epigallocatechin gallate]", "values": [{"measurement": "oral dose that appears in plasma", "setting": "[1]; after one hour", "value": "approximately 20%"}, {"measurement": "half life", "setting": "[1]; oral dose", "value": "approximately 8 h"}]}
{"smiles": "O=C(O[C@@H]1Cc2c(O)cc(O)cc2O[C@@H]1c1cc(O)c(O)c(O)c1)c1cc(O)c(O)c(O)c1", "note": "[EGCg, epigallocatechin gallate]", "values": [{"measurement": "effect on doxorubicin resistance tumors", "setting": "[2]", "value": "revert doxorubicin resistance tumors"}, {"measurement": "plasma concentration", "setting": "[3]; daily dose of 250 mg/kg/day", "value": "approximately 100 μM/L"}, {"measurement": "plasma value, considered an underestimation", "setting": "[3]; daily dose of 250 mg/kg/day", "value": 50, "unit": "µg/mL"}, {"measurement": "extrapolated value in plasma", "setting": "[3]; the doses proposed herein (6-60 mg/kg/day EGCg, oral)", "value": "more than 11 M/L"}]}
{"smiles": "COc1cccc2c1C(=O)c1c(O)c3c(c(O)c1C2=O)C[C@@](O)(C(=O)CO)C[C@@H]3O[C@H]1C[C@H](N)[C@H](O)[C@H](C)O1", "note": "[adriamycin]", "values": [{"measurement": "incidence of opportunistic microbial infections", "setting": "[4]", "value": "increased incidence of opportunistic microbial infections"}]}
